Experiment [1] deals with T1, human cannabis CB1 receptor (Homo sapiens, UniProt P21554).
T1 construct: expressed in transfected cells; host or cells: human embryonic kidney (HEK) cells, transient, Semliki Forest Virus system; membrane preparation
Briefly: Affinity for cannabinoid CB1 receptors, [3H]-CP-55,940 radioligand binding on HEK cell membranes. The settings on record: affinity for the CB1 receptor. The protocol:
The affinity of the compounds of the invention for cannabinoid CB1 receptors was determined using membrane preparations of human embryonic kidney (HEK) cells in which the human cannabis CB1 receptor is transiently transfected using the Semliki Forest Virus system in conjunction with [3H]-CP-55,940 as radioligand. After incubation of a freshly prepared cell membrane preparation with the [3H]-ligand, with or without addition of compounds of the invention, separation of bound and free ligand was performed by filtration over glassfiber filters. Radioactivity on the filter was measured by liquid scintillation counting. The affinity of the compounds of the invention for cannabinoid CB2 receptors was determined using membrane preparations of human embryonic kidney (HEK) cells in which the human cannabis CB2 receptor is transiently transfected using the Semliki Forest virus system in conjunction with [3H]-CP-55,940 as radioligand. After incubation of a freshly prepared cell membrane preparation with the [3H]-ligand, with or without addition of compounds of the invention, separation of bound of bound and free ligand was performed by filtration over glassfiber filters. Radioactivity on the filter was measured by liquid scintillation counting. The cannabinoid CB1 antagonistic activity of compounds of the invention was determined by functional studies using CHO cells in which human cannabinoid CB1 receptors are stably expressed (see M. Rinaldi-Carmona et. al., J. Pharmacol. Exp. Ther. 278 (1996) 871). The stable expression of the human cannabinoid receptor in cell systems was first described in Nature 1990, 346, 561-564 (CB1) and Nature 1993, 365, 61-65 (CB2) respectively. Adenylyl cyclase was stimulated using forskolin and measured by quantifying the amount of accumulated cyclic AMP. […]
The compounds of formula (I) show an excellent affinity for the CB1 receptor, determined with the experimental conditions described in Devane et. al. Mol. Pharmacol. 34 (1988) 605-613. […]

The conditions of experiment [2]: wild-type versus CB1 receptor knockout mice; cited from earlier work.
The conditions of experiment [3]: 10 and 20 mg daily, compared to placebo; cited from earlier work.

pIC50: −log10 of the molar value.

T1 sequence (P21554 whole entry): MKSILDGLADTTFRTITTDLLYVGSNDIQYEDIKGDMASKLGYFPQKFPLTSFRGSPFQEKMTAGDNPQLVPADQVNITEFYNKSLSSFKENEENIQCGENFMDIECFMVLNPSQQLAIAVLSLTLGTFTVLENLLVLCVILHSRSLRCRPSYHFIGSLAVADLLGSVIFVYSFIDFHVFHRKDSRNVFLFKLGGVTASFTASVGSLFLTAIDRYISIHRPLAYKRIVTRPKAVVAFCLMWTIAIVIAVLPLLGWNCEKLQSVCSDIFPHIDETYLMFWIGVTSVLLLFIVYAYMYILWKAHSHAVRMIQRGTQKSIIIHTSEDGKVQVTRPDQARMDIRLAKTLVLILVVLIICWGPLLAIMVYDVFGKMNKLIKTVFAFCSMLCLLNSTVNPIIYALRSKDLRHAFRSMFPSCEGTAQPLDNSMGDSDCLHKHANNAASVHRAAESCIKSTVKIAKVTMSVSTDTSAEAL

As to `Cc1c(C(=O)NC2CCCCC2)cc(-c2ccccc2OC(F)(F)F)n1CC1COCCO1` (racemic) [Example 10, (rac) 1-[1,4]Dioxan-2-ylmethyl-2-methyl-5-(2-trifluoromethoxy-phenyl)-1H-pyrrole-3-carboxylic acid cyclohexylamide], the pIC50 (in general, the negative decadic logarithm of the IC50, by convention in mol/L) in experiment [1] is 7.12. Still for that read-out and setting: the figure for `Cc1c(C(=O)NN2CCCCC2)nc(-c2ccc(OC(F)(F)F)cc2)n1CC1CCCCO1` (centres unmarked) [Example 1, 5-Methyl-1-(tetrahydro-pyran-2-ylmethyl)-2-(4-trifluoromethoxy-phenyl)-1H-imidazole-4-carboxylic acid piperidin-1-ylamide] is 6.92; for `Cc1c(C(=O)NC2CCCCC2)cc(-c2cc(C(F)(F)F)ccc2C(F)(F)F)n1C[C@H]1CCCO1` [Example 23, 5-(2,5-Bis-trifluoromethyl-phenyl)-2-methyl-1-[(R)-1-(tetrahydro-furan-2-yl)methyl]-1H-pyrrole-3-carboxylic acid cyclohexylamide] it is 8.10. For the compound `Cc1c(C(=O)NN2CCCCC2)nn(-c2ccc(Cl)cc2Cl)c1-c1ccc(Cl)cc1` [SR 141716], the food intake entry in experiment [2] is “reduces food intake in wild-type but not knockout mice”. Besides, the body weight entry in experiment [3] is recorded as “significantly reduced body weight”.

The record behind these values is patent US7563910B2, “Heterocyclic cannabinoid receptor antagonists” (Hoffmann-La Roche Inc., priority 2004, dated 2009).
